The record followed here is patent US6635786B2, “Symmetrically disubstituted aromatic compounds and pharmaceutical compositions for inhibiting poly (ADP-ribose) glycohydrolase, and methods for their use” (Guilford Pharmaceuticals, Inc., priority 2001, dated 2003).

Data set [1] addresses T1, human PARG (Homo sapiens, UniProt Q86W56).
T1 construct: human PARG from amino acid 378 to 976; GST (glutathione-S-transferase, pGEX-4T1) (N); made in house; host or cells: E. coli BL21
Description: PARG enzymatic assay. Type of data set: biochemical. The conditions noted are these: recombinant GST-fused human PARG (aa 378-976); 3H-labeled poly-(ADP-ribose) substrate; 23° C., 10 min. On the procedure:
The potency of PARG inhibition was determined in a PARG enzymatic assay. For each compound, various doses were used to inhibit the PARG reaction. A dose responsible curve was generated to determine the IC50 value and the concentration (in μM) required to achieve 50% inhibition of the reaction.
The PARG assay consisted of (a) preparation of 3H-labeled radioactive PARG as substrate, (b) purification of recombinant PARG, (c) incubation of the compound with the PARG reaction, (d) separation of the product by absorption to glass fiber filter and quantifying the radioactivity of ADP-ribose by scintillation counting.
3H-labeled poly-(ADP-ribose) was made by mixing labeled and unlabeled PAR. Labeled PAR was synthesized in a reaction of 50 mM Tris-HCl (pH 8.0), 4 mM MgCl2, 0.8 μg/mL activated DNA, 3 μM NAD, NEN 3H-NAD (0.1 mCi/mL), 0.8 μl/mL and 1.4 μl/mL Trevigen PARP. The reaction was incubated at room temperature for 60 min, then dialyzed to remove unincorporated 3H NAD using a MWCO 7000 dialysis cassette in 50 mM Phosphate buffer (pH 7.1) at 5° C. over night. Buffer was changed and dialysis continued for 2 h in the morning. The resulting 3H PAR gave 80,000 DPM/10 μL by scintillation counting.
Unlabeled PAR was synthesized in a reaction that consisted of 50 mM Tris-HCl (pH 8.0), 4 mM MgCl2, 0.8 μg/mL activated DNA, 150 μM NAD, and 1.9 μl/mL Trevigen PARP. The reaction was incubated at room temperature for 60 min, and dialyzed to remove unincorporated NAD in a MWCO 7000 cassette using 50 mM Phosphate buffer (pH 7.1) over night at […]. Buffer was changed and dialysis continued for 2 h in the morning. The OD260 of synthesized PAR is […].
The final PAR mix is made by combining 3H-PAR and PAR synthesized @ 150 μM NAD so that the OD260=0.2-0.3 and the DPM/10 μL=10,000 DPM (SA=0.45 Ci/mmole). EDTA was added to 1 mM.
A cDNA fragment encoding the carboxy terminal part of human PARG from amino acid 378 to 976 was amplified by polymerase chain reaction with human thymus cDNA (Clontech, Palo Alto, Calif.) as a template and a pair of primers with the sequences of 5′-[…]-3′ and 5′-[…]-3′. The primers contained the restriction enzyme sites EcoRI and XhoI. The PCR amplified PARG DNA fragment was digested with EcoRI and XhoI, and then ligated to the same sites in pGEX-4T1 plasmid (acquired from Pharmacia/Upjohn Co., Kalamazoo, Mich.) to create pGEX-PARG by using standard molecular biology procedure. The pGEX-PARG was transformed into E. coli strain BL21 for expressing the recombinant protein that has a glutathione-S-transferase at the amino terminus and fused in frame with PARG at the carboxy terminus. The recombinant protein was expressed and purified using glutathione-sephadex 4B beads according to the standard methodology.
A range of potential PARG inhibitors at final concentrations of 200.0 to 0.1 μM were tested, each point done in triplicate. The compounds were dissolved in DMSO resulting in a final DMSO concentration of 5.0%. The reaction was carried out in a volume of 0.1 mL. PARG enzyme was added to a concentration of 0.05 μL/mL to microtiter plates containing approximately 10 μM 3H-labeled poly-(ADP-ribose) in 50 mM Phosphate buffer (pH 7.1), 5 mM B-mercaptoethanol. The reaction was incubated at 23° C. for 10 min. and was stopped with the addition of TCA to a final concentration of 10%.
Enzyme activity was measured by the disappearance of substrate, [poly-(ADP-ribose) polymer], which was quantified as the loss of glass fiber filter adsorbed radioactivity. The reaction was harvested onto Millipore GFC96 well filter plates using the Packard Cell Harvestor. The plates were washed three times with 70% ethanol, air dried, and the radioactivity was measured by scintillation counting.

The structures appear in SMILES notation. pIC50: −log10 of the molar value.

T1 sequence (Q86W56 378-976): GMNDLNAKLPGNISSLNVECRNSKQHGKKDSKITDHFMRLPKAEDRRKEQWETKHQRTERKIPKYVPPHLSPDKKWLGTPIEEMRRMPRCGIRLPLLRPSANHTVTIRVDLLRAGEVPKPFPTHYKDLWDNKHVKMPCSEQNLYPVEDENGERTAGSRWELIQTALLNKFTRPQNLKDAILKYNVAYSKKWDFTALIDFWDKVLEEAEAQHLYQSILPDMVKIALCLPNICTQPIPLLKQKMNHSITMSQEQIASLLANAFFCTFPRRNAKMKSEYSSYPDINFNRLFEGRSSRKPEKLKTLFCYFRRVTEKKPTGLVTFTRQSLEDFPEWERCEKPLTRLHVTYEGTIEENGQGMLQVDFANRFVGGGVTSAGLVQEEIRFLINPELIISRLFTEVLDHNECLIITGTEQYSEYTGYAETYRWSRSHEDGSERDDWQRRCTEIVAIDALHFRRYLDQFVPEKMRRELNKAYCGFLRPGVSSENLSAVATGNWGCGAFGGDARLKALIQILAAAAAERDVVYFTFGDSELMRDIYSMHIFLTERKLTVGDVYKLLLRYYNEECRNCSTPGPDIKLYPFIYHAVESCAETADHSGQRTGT

What is called melting point is the temperature of the solid-liquid transition. In general, pIC50 refers to −log10 of the IC50, conventionally taken in molar units. Molecule `O=C(OCc1ccccc1)c1ccc2c(c1)C(Cl)(Cl)c1cc(C(=O)OCc3ccccc3)ccc1-2` [Example 1, 9,9-Dichloro-9H-fluorene-2,7-dicarboxylic acid bis-benzyl ester] showed a melting point of 159 to 162 °C. Moreover, the pIC50 in data set [1] was 4.87.

In turn, `O=C(OCCCc1ccccc1)c1ccc2c(c1)C(Cl)(Cl)c1cc(C(=O)OCCCc3ccccc3)ccc1-2` [Example 2, 9,9-Dichloro-9H-fluorene-2,7-dicarboxylic acid bis-(3-phenyl-propyl) ester] had a melting point of 91 to 92 °C. In data set [1], the pIC50 was 4.95.

Consider `O=C(NCCCc1ccccc1)c1ccc2c(c1)C(Cl)(Cl)c1cc(C(=O)NCCCc3ccccc3)ccc1-2` [Example 13, 2,7-Bis-[N-(3-phenyl-propyl)-carbamoyl]-9,9-dichloro-9H-fluorene], for which the melting point was 165 to 167 °C. Further, the pIC50 in data set [1] was 5.37.

`O=C(NCCCc1ccccc1)c1ccc2c(c1)C(=O)c1cc(C(=O)NCCCc3ccccc3)ccc1-2` [Example 16] had a melting point of 162 to 165 °C. The pIC50 in data set [1] was 5.77.

Molecule `O=C(NCCc1ccccc1)c1ccc(C(=O)c2ccc(C(=O)NCCc3ccccc3)cc2)cc1` [Example 18, 4,4′-Bis(N-phenethyl)carbamoyl-benzophenone] registered a melting point of 244 to 248 °C. In data set [1], the pIC50 was 5.22.

In turn, `O=C(c1cccc(C(=O)N2CCN(c3ccccc3)CC2)c1)c1cccc(C(=O)N2CCN(c3ccccc3)CC2)c1` [Example 22] registered a melting point of 157 to 158 °C. The negative logarithm of the IC50 (pIC50) in data set [1] is 4.77.

Take `O=C(CCCl)c1ccc2c(c1)Cc1cc(C(=O)CCCl)ccc1O2` [Example 37, 2,7-Bis-(3-chloro-propionyl)-xanthene]: the melting point was in the range of 179 to 181 °C. The pIC50 in data set [1] was 4.77.

Regarding `O=C(CCCl)c1ccc2oc3ccc(C(=O)CCCl)cc3c(=O)c2c1` [Example 38, 2,7-Bis-(3-chloro-propionyl)-xanthen-9-one], in data set [1], the pIC50 was 4.77.

Consider `O=C(CCN1CCN(c2ccccc2)CC1)c1ccc2c(c1)Cc1cc(C(=O)CCN3CCN(c4ccccc4)CC3)ccc1O2` [Example 39, 2,7-Bis-[3-(4-phenyl-piperazin-1-yl)propionyl]-xanthene], for which the melting point lay within 206 to 208 °C. Moreover, the pIC50 in data set [1] is 5.15.

The molecule `O=C(CCN1CCN(c2cccc(C(F)(F)F)c2)CC1)c1ccc2c(c1)Cc1cc(C(=O)CCN3CCN(c4cccc(C(F)(F)F)c4)CC3)ccc1O2` [Example 40, 2,7-Bis-{3-[4-(3-trifluoromethyl-phenyl)-piperazin-1-yl]-propionyl}-xanthene] yielded a melting point of 155 to 157 °C. In addition, the pIC50 in data set [1] was 4.97.

In turn, `O=C(CCN1CCN(c2cccc(C(F)(F)F)c2)CC1)c1ccc2oc3ccc(C(=O)CCN4CCN(c5cccc(C(F)(F)F)c5)CC4)cc3c(=O)c2c1` [Example 41, 2,7-Bis-{3-[4-(3-trifluoromethyl-phenyl)-piperazin-1-yl]-propionyl}-xanthen-9-one] gave a melting point of 166 to 167 °C. In data set [1], the negative logarithm of the IC50 (pIC50) is 4.76.

On to `O=C(CCN1CCN(c2ccccc2)CC1)c1ccc2oc3ccc(C(=O)CCN4CCN(c5ccccc5)CC4)cc3c(=O)c2c1` [Example 42, 2,7-Bis-[3-(4-phenyl-piperazin-1-yl)-propionyl]-xanthen-9-one], for which the melting point was 199 to 201 °C. The pIC50 in data set [1] was 4.00.

For `O=C(c1cccc2c1S(=O)(=O)c1c(cccc1C(=O)N1CCN(c3ccc(F)cc3)CC1)O2)N1CCN(c2ccc(F)cc2)CC1` [Example 43, 1,9-Bis{N-[4-(4-fluoro-phenyl)-piperazine-carbamoyl]}-10,10-dioxo-phenoxathiin], the pIC50 in data set [1] is 5.24.

`O=C(c1cccc2c1S(=O)(=O)c1c(cccc1C(=O)N1CCN(c3ccc(C(F)(F)F)cc3)CC1)O2)N1CCN(c2ccc(C(F)(F)F)cc2)CC1` [Example 44, 1,9-Bis-{N-[4-(4-trifluoromethyl-phenyl)-piperazine]carbamoyl}-10,10-dioxo-phenoxathiin]: in data set [1], the pIC50 was 4.92.

For `O=C(c1cccc2c1S(=O)(=O)c1c(cccc1C(=O)N1CCN(c3ccc(O)cc3)CC1)O2)N1CCN(c2ccc(O)cc2)CC1` [Example 45, 1,9-Bis{N-[4-(4-hydroxy-phenyl)-piperazine]carbamoyl}-10,10-dioxo-phenoxathiin], in data set [1], the pIC50 is 4.42.

For the molecule `O=C(c1cccc2c1S(=O)(=O)c1c(cccc1C(=O)N1CCN(c3ccncc3)CC1)O2)N1CCN(c2ccncc2)CC1` [Example 46, 1,9-Bis{N-[4-(pyridin-4-yl)-piperazine]carbamoyl}-10,10-dioxo-phenoxathiin], the pIC50 in data set [1] is 4.55.

With `O=C(NCCCc1ccccc1)c1cccc2c1S(=O)(=O)c1c(cccc1C(=O)NCCCc1ccccc1)O2` [Example 47, 1,9-Bis-[N-(3-phenpropyl)carbamoyl]-10,10-dioxo-phenoxathiin], in data set [1], the pIC50 is 4.00.

Regarding `O=C(NCCc1ccc(Cl)cc1Cl)c1cccc2c1S(=O)(=O)c1c(cccc1C(=O)NCCc1ccc(Cl)cc1Cl)O2` [Example 48, 1,9-Bis{N-[2-(2,4-dichlorophenyl)ethyl]carbamoyl}-10,10-dioxo-phenoxathiin], the negative-log IC50 (pIC50) in data set [1] was 4.41.

With `O=C(NCCN1CCCC1)c1cccc2c1S(=O)(=O)c1c(cccc1C(=O)NCCN1CCCC1)O2` [Example 49, 1,9-Bis{N-[2-(pyrrolidin-1-yl)ethyl]carbamoyl}-10,10-dioxo-phenoxathiin], in data set [1], the pIC50 is 5.00.

For `O=C(NCCc1cccs1)c1cccc2c1S(=O)(=O)c1c(cccc1C(=O)NCCc1cccs1)O2` [Example 50, 1,9-Bis{N-[2-(thiophen-2-yl)ethyl]carbamoyl}-10,10-dioxo-phenoxathiin], in data set [1], the pIC50 was 4.94.

Consider `O=C(NCCCN1CCOCC1)c1cccc2c1S(=O)(=O)c1c(cccc1C(=O)NCCCN1CCOCC1)O2` [Example 51, 1,9-Bis{N-[3-(morpholin-4-yl)-propyl]carbamoyl}-10,10-dioxo-phenoxathiin], for which the pIC50 in data set [1] is 5.02.

With `COc1cc(CCNC(=O)c2cccc3c2S(=O)(=O)c2c(cccc2C(=O)NCCc2cc(OC)cc(OC)c2)O3)cc(OC)c1` [Example 52, 1,9-Bis {N-[2-(3,5-dimethoxyphenyl)ethyl]carbamoyl}-10,10-dioxo-phenoxathiin], the pIC50 in data set [1] is 4.50.

Turning to `CN(CCCC(=O)c1ccc2c(c1)-c1ccc(C(=O)CCCN(C)c3ccccc3)c3cccc-2c13)c1ccccc1` [Example 53, 3,9-Bis[4-(methylphenylamino)butyryl]fluoranthene], the pIC50 in data set [1] was 4.93.

Regarding `O=C(CCCn1cccc1)c1ccc2c(c1)-c1ccc(C(=O)CCCn3cccc3)c3cccc-2c13` [Example 54, 3,9-Bis[4-(1-pyrrolo)butyryl]fluoranthene], the negative logarithm of the IC50 (pIC50) in data set [1] is 5.27.

Turning to `O=C(NCCc1ccccc1)c1ccc2c(c1)C(=O)c1cc(C(=O)NCCc3ccccc3)ccc1-2` [Example 56, 9-Oxo-9H-fluorene-2,7-bis-(phenethyl-amide)], the melting point is 327 to 329 °C. For the same molecule, in data set [1], the pIC50 was 4.66.

On to `O=C(NCc1ccc(Cl)c(Cl)c1)c1ccc2c(c1)C(=O)c1cc(C(=O)NCc3ccc(Cl)c(Cl)c3)ccc1-2` [Example 57, 9-Oxo-9H-fluorene-2,7-bis-(3,4-dichloro-benzylamide)], for which the melting point was in the range of 265 to 267 °C. Besides, in data set [1], the pIC50 was 4.82.
